In patent publication US20250257071A9, “TRICYCLIC COMPOUND, METHOD FOR PREPARING SAME, AND USE THEREOF” (Sichuan Kelun-Biotech Biopharmaceutical Co., Ltd., priority 2021, published 2025):

Biological target: human TLR7 (Homo sapiens (Human), UniProt Q9NYK1)
Test: Agonistic activity of compounds on HEK-Blue hTLR7 cells (QUANTI-Blue reporter, OD620)
Type: cell-based
Conditions: for Emax (OD620): OD620 at maximum activation effect
Procedure: • 1. HEK-Blue hTLR7 cells (Invivogen) were cultured in DMEM medium (Hyclone) containing 10% FBS heat-inactivated fetal bovine serum (Corning). On the day of detection, the cell state was observed under a microscope, the cells were collected and resuspended, and the cell concentration was adjusted after counting, 50 μL per well, the total amount of cells was 2×10^4, and the cells were inoculated in a 96-well plate. • 2. After the cells adhered to the wall overnight, 50 μL of the test compound at different concentrations was added into the well plate, so that the final concentrations were 100 μM, 33.3 μM, 11.11 μM, 3.70 μM, 1.23 μM, 0.41 μM, 0.14 μM, 0.05 μM, 0 μM, and the final concentration of DMSO was 1%. The compound was incubated with the cells in a 37° C., 5% CO2 incubator for 20 h. • 3. After the incubation, observation under microscope was performed to determine the maximum signal well, the states of the cells with the highest and lowest concentrations of the compound, and whether the compound will crystalize at high concentration. 10 μL of cell culture supermatant was taken and transferred to a new 96-well transparent plate, 90 μL of QUANTI-Blue (Invivogen) detection reagent was added to each well, and incubated at 37° C. for 3 h, and OD620 was read with a multifunctional microplate reader (BMG LABTECH). • 4. EC50 was calculated by fitting with Graphpad Prism software log(agonist) vs. response—Variable slope, and Emax was the (D620 at which the activation effect of the test compound reached the maximum.

human TLR7, sequence (Q9NYK1 27-1049): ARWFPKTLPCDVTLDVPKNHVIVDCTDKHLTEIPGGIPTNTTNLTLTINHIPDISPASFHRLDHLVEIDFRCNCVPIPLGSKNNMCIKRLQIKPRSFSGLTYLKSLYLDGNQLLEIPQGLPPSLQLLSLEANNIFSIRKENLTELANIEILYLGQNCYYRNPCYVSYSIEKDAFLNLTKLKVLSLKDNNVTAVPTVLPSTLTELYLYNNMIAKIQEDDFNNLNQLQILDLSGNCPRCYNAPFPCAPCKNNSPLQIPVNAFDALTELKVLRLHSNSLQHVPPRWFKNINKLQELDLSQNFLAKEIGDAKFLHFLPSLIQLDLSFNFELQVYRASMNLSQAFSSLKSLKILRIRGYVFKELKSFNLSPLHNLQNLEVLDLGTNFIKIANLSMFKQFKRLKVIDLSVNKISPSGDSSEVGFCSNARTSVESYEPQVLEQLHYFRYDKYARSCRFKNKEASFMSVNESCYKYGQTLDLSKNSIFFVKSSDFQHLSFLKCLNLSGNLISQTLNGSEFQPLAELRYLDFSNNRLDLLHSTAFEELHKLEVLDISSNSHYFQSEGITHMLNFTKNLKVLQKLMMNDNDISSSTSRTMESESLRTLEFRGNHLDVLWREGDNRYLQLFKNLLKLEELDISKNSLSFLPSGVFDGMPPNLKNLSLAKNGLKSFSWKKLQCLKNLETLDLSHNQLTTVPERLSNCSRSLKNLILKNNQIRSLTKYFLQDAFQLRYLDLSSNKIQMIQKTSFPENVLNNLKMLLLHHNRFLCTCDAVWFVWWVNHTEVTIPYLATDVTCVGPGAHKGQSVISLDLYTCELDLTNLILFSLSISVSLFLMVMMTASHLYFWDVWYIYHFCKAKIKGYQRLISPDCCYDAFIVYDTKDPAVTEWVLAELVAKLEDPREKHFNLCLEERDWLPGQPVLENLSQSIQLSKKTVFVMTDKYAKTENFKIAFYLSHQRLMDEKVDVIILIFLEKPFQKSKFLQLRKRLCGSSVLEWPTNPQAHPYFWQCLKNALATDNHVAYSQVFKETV

SMILES	activation effect on human TLR7 (in words)	Emax (OD620)
CCCCc1nc2c(N)nc3cc(C4=CCN(C)CC4)sc3c2[nH]1 [Compound 8, 2-butyl-7-(1-methyl-1,2,3,6-tetrahydropyridin-4-yl)-1H-imidazo[4,5-d]thieno[3,2-b]pyridine-4-amine]	strong activation effect	0.56 OD620
CCCCc1nc2c(N)nc3cc(C)sc3c2n1CC1CCN(CCOCCOCCOCCOCCOCCOCCOC)CC1 [Compound 16, 1-((1-(2,5,8,11,14,17,20-heptaoxadocosan-22-yl)piperidin-4-yl)methyl)-2-butyl-7-methyl-1H-imidazo[4,5-d]thieno[3,2-b]pyridine-4-amine]	strong activation effect	2.18 OD620
CCCCc1nc2c(N)nc3cc(C)sc3c2n1CC1CCOCC1 [Compound 26, 2-butyl-7-methyl-1-((tetrahydro-2H-pyran-4-yl)methyl)-1H-imidazo[4,5-d]thieno[3,2-b]pyridine-4-amine]	strong activation effect	1.78 OD620
CCCCc1nc2c(N)nc3cc(C4CCN(C)CC4)sc3c2n1C [Compound 32, 2-butyl-1-methyl-7-(1-methylpiperidin-4-yl)-1H-imidazo[4,5-d]thieno[3,2-b]pyridine-4-amine]	strong activation effect	0.91 OD620
CCCCc1nc2c(N)nc3cc(C4CCN(C)CC4)sc3c2n1CC1CCOCC1 [Compound 34, 2-butyl-7-(1-methylpiperidin-4-yl)-1-((tetrahydro-2H-pyran-4-yl)methyl)-1H-imidazo[4,5-d]thieno[3,2-b]pyridine-4-amine]	strong activation effect	1.21 OD620
CCCCc1nc2c(N)nc3cc(C4CCN(C)CC4)sc3c2n1CC1CCN(C)CC1 [Compound 38, 2-butyl-7-(1-methylpiperidin-4-yl)-1-((1-methylpiperidin-4-yl)methyl)-1H-imidazo[4,5-d]thieno[3,2-b]pyridine-4-amine]	strong activation effect	0.49 OD620

Second part, the molecule after the results:

activation effect on human TLR7 (in words)	Emax (OD620)	SMILES
strong activation effect	1.74 OD620	COCCc1nc2c(N)nc3ccsc3c2n1CCCCN [Compound 4, 1-(4-aminobutyl)-2-(2-methoxyethyl)-1H-imidazo[4,5-d]thieno[3,2-b]pyridine-4-amine]
strong activation effect	1.46 OD620	CCOCc1nc2c(N)nc3ccsc3c2n1CCCCN [Compound 5, 1-(4-aminobutyl)-2-(2-ethoxymethyl)-1H-imidazo[4,5-d]thieno[3,2-b]pyridine-4-amine]
strong activation effect	2.40 OD620	CCCCc1nc2c(N)nc3cc(C)sc3c2n1CC1CCN(CCOCCOCCN)CC1 [Compound 15, 1-((1-(2-(2-(2-aminoethoxy)ethoxy)ethyl)piperidin-4-yl)methyl)-2-butyl-7-methyl-1H-imidazo[4,5-d]thieno[3,2-b]pyridine-4-amine]
strong activation effect	2.23 OD620	CCCCc1nc2c(N)nc3cc(C)sc3c2n1CC1CCN(C(=O)CCOCCOCCN)CC1 [Compound 17, 1-(4-((4-amino-2-butyl-7-methyl-1H-imidazo[4,5-d]thieno[3,2-b]pyridin-1-yl)methyl)piperidin-1-yl)-3-(2-(2-aminoethoxy)ethoxy)propan-1-one]
strong activation effect	2.08 OD620	CCCCc1nc2c(N)nc3ccsc3c2n1CC1CCNCC1 [Compound 25, 2-butyl-1-(piperidin-4-ylmethyl)-1H-imidazo[4,5-d]thieno[3,2-b]pyridine-4-amine]
strong activation effect	1.39 OD620	CCCCc1nc2c(N)nc3cc(C)sc3c2n1CC1CCN(C)CC1 [Compound 28, 2-butyl-7-methyl-1-((1-methylpiperidin-4-yl)methyl)-1H-imidazo[4,5-d]thieno[3,2-b]pyridine-4-amine]
